These results are taken from article PMC5672800 (Journal of medicinal chemistry, 2017).

pEC50, pIC50, pKi: −log10 of the molar value. Some results are limits rather than exact numbers.

One test deals with human MC3R. As to conditions: cited from earlier work.
Test [1] deals with T1, mMC3R (Mus musculus, UniProt P33033). Kind of test: 125I-NDP-MSH competitive binding assay at mMC3R. As to conditions: vs Ac-His-DPhe-Arg-Trp-NH2; negative = more potent than control.
Another test deals with mMC4R (Mus musculus, UniProt P56450). As to conditions: read-out: mMC4R EC50; cited from earlier work.
Test [2] addresses T1, mMC3R. As to conditions: read-out: mMC3R EC50; cited from earlier work.
For the next test, the system named is hMC4R. As to conditions: cited from earlier work.
Another test has as its system human MC4R. The note with it: cited from earlier work.

T1 sequence (P33033 whole entry): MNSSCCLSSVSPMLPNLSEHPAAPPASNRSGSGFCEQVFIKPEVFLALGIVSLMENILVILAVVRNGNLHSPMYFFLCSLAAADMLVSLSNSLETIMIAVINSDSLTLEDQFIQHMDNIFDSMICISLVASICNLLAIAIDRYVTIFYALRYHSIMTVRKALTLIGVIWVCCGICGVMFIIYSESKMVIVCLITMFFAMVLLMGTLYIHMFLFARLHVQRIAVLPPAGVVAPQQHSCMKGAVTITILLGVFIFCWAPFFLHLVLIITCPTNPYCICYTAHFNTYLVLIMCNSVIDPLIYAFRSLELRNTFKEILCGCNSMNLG
mMC4R, sequence (P56450 whole entry): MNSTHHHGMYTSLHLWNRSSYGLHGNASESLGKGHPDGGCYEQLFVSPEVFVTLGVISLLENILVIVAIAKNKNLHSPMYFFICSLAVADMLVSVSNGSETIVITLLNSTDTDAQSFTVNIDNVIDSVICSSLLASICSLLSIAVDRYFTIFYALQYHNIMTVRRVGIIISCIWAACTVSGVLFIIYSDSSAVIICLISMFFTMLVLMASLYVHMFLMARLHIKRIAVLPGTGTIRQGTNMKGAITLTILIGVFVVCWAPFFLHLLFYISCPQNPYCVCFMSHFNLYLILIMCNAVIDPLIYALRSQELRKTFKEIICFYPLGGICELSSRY

On to `CC(=O)N[C@@H](Cc1c[nH]cn1)C(=O)N[C@H](Cc1ccccc1)C(=O)N[C@@H](CCCNC(=N)N)C(=O)N[C@@H](Cc1c[nH]c2ccccc12)C(N)=O` [Ac-His-DPhe-Arg-Trp-NH2], for which the pIC50 in the test on human MC3R (read-out: human MC3R IC50, previously reported) was less than 5.00.

For `CC(=O)N[C@@H](CCCNC(=N)N)C(=O)N[C@@H](CCCNC(=N)N)C(=O)N[C@H](Cc1ccc(I)cc1)C(=O)N[C@H](Cc1ccc2ccccc2c1)C(N)=O` [Compound 41, Ac-Arg-Arg-(pI)DPhe-DNal(2′)-NH2], the “mMC3R (IC50) Fold Diff.” value at mMC3R [1] is -115.

For the compound “Ac-Ser-Tyr-Ser-Nle-Glu-His-Arg-Phe-Phe-Gly-Lys-Pro-Val-NH2 (SYSXEHRFFGKPV; HELM PEPTIDE1{[ac].S.Y.S.[Nle].E.H.R.F.F.G.K.P.V.[am]}$$$$V2.0; SMILES CCCC[C@H](NC(=O)[C@H](CO)NC(=O)[C@H](Cc1ccc(O)cc1)NC(=O)[C@H](CO)NC(C)=O)C(=O)N[C@@H](CCC(=O)O)C(=O)N[C@@H](Cc1c[nH]cn1)C(=O)N[C@@H](CCCNC(=N)N)C(=O)N[C@@H](Cc1ccccc1)C(=O)N[C@@H](Cc1ccccc1)C(=O)NCC(=O)N[C@@H](CCCCN)C(=O)N1CCC[C@H]1C(=O)N[C@H](C(N)=O)C(C)C)”, the pEC50 in the test with mMC4R was 6.03; with mMC3R [2] it was 6.32.

Regarding Tic-(pI)DPhe-Arg-Trp-NH2, in the test with human MC3R, the “binding to human MC3R” value was 75 nM. In addition, in the test with hMC4R, the “hMC4R agonist activation with respect to maximal response” value is given as more than 35% and the “hMC4R antagonist pA2” value was 9.10. For the same compound, the pKi on hMC4R (read-out: hMC4R antagonist Ki) was 9.10. In addition, the “binding to human MC4R” value in the test on human MC4R is listed as 0.30 nM.

Usually pIC50 stands for −log10 of the IC50, conventionally taken in molar units. Usually pEC50 stands for the negative decadic logarithm of the EC50, by convention in mol/L. The pKi is the negative decadic logarithm of the Ki, by convention in mol/L.
